Assay results reported in patent US11160808B2, “Compounds that enhance Atoh1 expression” (Massachusetts Eye & Ear Infirmary, priority 2008, dated 2021).
Like-named read-outs stand apart in the source and are kept apart here.

How the values were obtained:
[1] = LD50 (median lethal dose) determination; type: cell-based
From the text: IC50 is a measure of the effectiveness of a compound in inhibiting biological or biochemical function. LD50 is the amount of a compound required to kill half the members of a tested population.

[2] = test system: Math1 enhancer and minimal promoter Luciferase reporter in HEK cells; assay: Math1 Luciferase reporter assay in HEK cells; type: cell-based, human
From the text: A human embryonic kidney (HEK) cell line stably expressing a Luciferase gene controlled by an Math1 enhancer and minimal promoter was used in a high-throughput screen (HTS) of 144,000 small molecules to identify compounds that increase Math1 expression (i.e., transcription and/or translation). Such compounds can be used to increase the conversion of stem cells, progenitor cells, and support cells to or towards a hair cell. Screens to identify such compounds are described by Li et al., (U.S. Publication No. 2005/0287127) and Li et al., (U.S. application Ser. No. 11/953,797).
HEK cells stably expressing the Math1 Luciferase reporter were plated onto 384 well plates and cultured overnight in medium containing 10% fetal calf serum (FCS). Activation of the Math1 enhancer was measured by the increase in luminescence on a plate reader following addition of a luciferase detection agent. The assay was optimized for cell number, time of incubation, volume of medium, cell lysis reagent and luciferase reagent. Luminescence levels were compared in cells with the Math1-luciferase construct with and without retinoic acid (1 μM), and/or a luciferase construct with and without the Math1 enhancer and minimal promoter region.
To improve assay sensitivity, and reduce the coefficient of variation (CV), a more sensitive luciferase reagent (BriteLite luciferase reporter assay reagent, Perkin Elmer) was used, and Triton-X-100 was added to the lysis reagent to ensure complete lysis of the cells. Following these changes a CV of 4.2% was recorded. These conditions were used for all high-throughput screens. The luminescence threshold for a compound to be positive was defined as a 2-fold increase above the control (e.g., cells exposed to DMSO).
Cells were seeded on 384 well plates and allowed to attach overnight at 37° C. with 5% CO2 in the absence of growth factors. Math1 activation was measured by the increase in luminescence on a plate reader following addition of a luciferase detection reagent. Luminescence was assessed at 24, 48, and 72 hours. These conditions were used to screen 144,000 compounds contained in the small molecule libraries at Harvard University's Laboratory for Drug Discovery in Neurodegeneration (LDDN).
HTS were performed using HEK-Math1 cells seeded in 384 well plates. One compound was added per well using pin transfer. The final concentration of each compound was […]. Cell were incubated in the presence of a compound for 48 hours at 37° C. with 5% CO2. Cell lysates then were collected and bioluminescence determined. Luminescence values were compared normalized against DMSO.
About 20000 compounds were screened per week in 50 plates of 384 well with the aid of robotic systems (Beckman Biomek FX). Compounds were screened at an average final concentration of 0.7 μM (in 0.04% DMSO) with each plate containing 16 wells of 1 μM retinoic acid, as a positive control, and 16 wells of 0.04% DMSO, as a vehicle control. Percent activation of luminescence in the test compounds was determined for cells treated with the compounds against cells treated with DMSO.
Ten compounds, randomly selected from the group of 110 compounds identified in Example 2, were further evaluated, as follows. HEK cells were plated on 96 well plates at a density of 100000 cells per well. One day after plating, 0.1, 1, and 5 μM of each positive compound was added per well in a 10% fetal bovine serum (FBS) DMEM solution. Cells were then lysed 48 hours after addition of the compound and Math1 expression was analyzed using a luciferase reporter assay, as described above, and real-time PCR.
The half maximal inhibitory concentration (IC50) and median lethal dose or Lethal Dose, 50% (LD50) were determined for each of the compounds identified in Example 2 using standard laboratory techniques. IC50 is a measure of the effectiveness of a compound in inhibiting biological or biochemical function. LD50 is the amount of a compound required to kill half the members of a tested population.

[3] = Homo sapiens, HEK293; read-out: IC50
[4] = Homo sapiens, HEK293; read-out: Maximum (Fold DMSO)

Row | Compound | LD50 [1] | IC50 [2, 3] | maximal fold induction [2, 4] | IC50 ([2]; Homo sapiens, HEK293) | maximal fold induction ([2]; Homo sapiens, HEK293, read-out: Maximum (Fold DMSO))
1 | Oc1ccc(-c2nc3ccccc3[nH]2)cc1 [CP-0047659, 4-(1H-benzo[d]imidazol-2-yl)phenol] | >10 µM | 1300 nM | 2.3 |  | 
2 | c1ccc(-c2cc3ccccc3[nH]2)nc1 [CP-0072096, 2-(pyridin-2-yl)-1H-indole] | >10 µM | 6000 nM | 2.2 |  | 
3 | O=C(Nc1ccc(Cl)cn1)c1sc2ccccc2c1Cl [CP-0064314, 3-chloro-N-(5-chloropyridin-2-yl)benzo[b]thiophene-2-carboxamide] | >10 µM | > 10000 nM | 1.7 |  | 
4 | CCn1ccc(C(=O)Nc2cc(Cl)ccc2Cl)n1 [CP-0070844, N-(2,5-dichlorophenyl)-1-ethyl-1H-pyrazole-3-carboxamide] | >10 µM | 2000 nM | 1.7 |  | 
5 | O=C(NCC1CCCO1)c1sc2ccccc2c1Cl (stereo not drawn) [CP-0068577, 3-chloro-N-((tetrahydrofuran-2-yl)methyl)benzo[b]thio-phene-2-carboxamide] | >10 µM | 1000 nM | 1.6 |  | 
6 | CNc1ccccc1C(=O)NCCc1ccccc1 [CP-0007991, 2-(methylamino)-N-phenethylbenzamide] | >10 µM | 600 nM | 2 |  | 
7 | COc1cccc(Nc2ncnc3[nH]cnc23)c1 [CP-0072720, N-(3-methoxyphenyl)-9H-purin-6-amine] | >10 µM | 3000 nM | 1.8 |  | 
8 | CCN(CC)C(=O)c1cc2cc3cc(OC)ccc3nc2s1 [CP-0076627, N,N-diethyl-6-methoxythieno [2,3-b]quinoline-2-carboxamide] | >10 µM | 5000 nM | 2.2 |  | 
9 | COc1cccc(C(=O)Nc2nc3ccc(F)cc3s2)c1 [CP-0107060, N-(6-fluorobenzo[d]thiazol-2-yl)-3-methoxybenzamide] | >10 µM | 100 nM | 2.2 |  | 
10 | Cn1nccc1C(=O)Nc1nc2ccccc2s1 [CP-0067233, N-(benzo[d]thiazol-2-yl)-1-methyl-1H-pyrazole-5-carboxamide] | >10 µM | 2000 nM | 1.8 |  | 
11 | COCCNc1ncc(-c2ccc(C)cc2)cn1 [CP-0059547, N-(2-methoxyethyl)-5-p-tolylpyrimidin-2-amine] | >10 µM | 1000 nM | 2 |  | 
12 | O=C(Nc1ccc(Cl)cn1)c1ccc(Br)cc1 [CP-0060729, 4-bromo-N-(5-chloropyridin-2-yl)benzamide] | >10 µM | 200 nM | 1.6 |  | 
13 | Cc1oc(C(C)(C)C)cc1-c1cc(NC(=O)c2ccccc2)[nH]n1 [CP-0104765, N-(3-(5-tert-butyl-2-methylfuran-3-yl)-1H-pyrazol-5-yl)benzamide] | >10 µM | 400 nM | 2 |  | 
14 | Cc1cccc(NC(=O)c2ccc3c(c2)OCCO3)n1 [CP-0029278, N-(6-methylpyridin-2-yl)-2,3-dihydrobenzo [b][1,4]dioxine-6-carboxamide] | >10 µM | 500 nM | 1.9 |  | 
15 | O=C(CSc1nc2ccccc2o1)Nc1ccccc1Cl [CP-0029300, 2-(benzo[d]oxazol-2-ylthio)-N-(2-chlorophenyl)acetamide] | >10 µM | 1600 nM | 2 |  | 
16 | COc1ccccc1N1CCN(c2ccc3ccccc3n2)CC1 [CP-0087799, 2-(4-(2-methoxyphenyl)piperazin-1-yl)quinoline] | >10 µM | 1000 nM | 2.1 |  | 

Row | Compound | LD50 [1] | IC50 [2, 3] | maximal fold induction [2, 4] | IC50 ([2]; Homo sapiens, HEK293) | maximal fold induction ([2]; Homo sapiens, HEK293, read-out: Maximum (Fold DMSO))
17 | CCc1c(C)[nH]c2cc(-c3ccc(Cl)cc3)nn2c1=O [CP-0063375, 2-(4-chlorophenyl)-6-ethyl-5-methylpyrazolo[1,5-a]pyrimidin-7(4H)-one] | >10 µM | 2200 nM | 1.9 |  | 
18 | Cn1c(COc2ccc(F)cc2)nc2ccccc21 [CP-0074806, 2-((4-fluorophenoxy)methyl)-1-methyl-1H-benzo[d]imidazole] | >10 µM | 700 nM | 1.8 |  | 
19 | O=C(Cn1nnc2ccccc21)NC1Cc2ccccc2C1 [CP-0009883, 2-(1H-benzo[d][1,2,3]triazol-1-yl)-N-(2,3-dihydro-1H-inden-2-yl)acetamide] | >10 µM | 2500 nM | 2.3 |  | 
20 | O=C(Nc1ccc(Cl)cn1)c1cccs1 [CP-0072156, N-(5-chloropyridin-2-yl)thiophene-2-carboxamide] | >10 µM | 2000 nM | 2 |  | 
21 | Fc1ccccc1-c1noc(NCCCN2CCCCC2)n1 [CP-0130665, 3-(2-fluorophenyl)-N-(3-(piperidin-1-yl)propyl)-1,2,4-oxadiazol-5-amine] | >10 µM | 300 nM | 2 |  | 
22 | Clc1ccc2oc(-c3ccccc3)nc2c1 [CP-0079983, 5-chloro-2-phenylbenzo[d]oxazole] | >10 µM | 3000 nM | 1.8 |  | 
23 | c1ccc2cc(-c3cc4ccccc4[nH]3)ccc2c1 [CP-0010539, 2-(naphthalen-2-yl)-1H-indole] | >10 µM | 500 nM | 2.1 |  | 
24 | c1ccc(SCc2nc3ccccc3[nH]2)cc1 [CP-0080773, 2-(phenylthiomethyl)-1H-benzo[d]imidazole] | >10 µM | > 10000 nM | 2.2 |  | 
25 | O=C(NNC(=S)Nc1ccc(F)cc1)c1ccccc1Cl [CP-0005186, 2-(2-chlorobenzoyl)-N-(4-fluorophenyl)hydrazine-carbothioamide] | >10 µM | 1000 nM | 1.8 |  | 
26 | COc1ccccc1OCc1nc2ccccc2[nH]1 [CP-0069961, 2-((2-methoxyphenoxy)methyl)-1H-benzo[d]imidazole] | >10 µM | 2000 nM | 1.7 |  | 
27 | Brc1ccc(C2C=C(c3cccnc3)Nc3nc4ccccc4n32)cc1 (stereo not drawn) [CP-0131763, 2-(3-pyridyl)-4-(4-bromophenyl)-1,4-dihydrobenzo[4,5]imi-dazo[1,2-a]pyrimidine] | >10 µM |  |  | 2000 nM | 2.4
28 | Cn1cc(Cl)c(C(=O)NCC(=O)c2ccccc2)n1 [CP-0070886, 4-chloro-1-methyl-N-(2-oxo-2-phenylethyl)-1H-pyrazole-3-carboxamide] | >10 µM | 1000 nM | 2.1 |  | 
29 | Cc1ccc(COn2c(-c3ccccc3)nc3ccc([N+](=O)[O-])cc32)cc1 [CP-0000571, 1-(4-methylbenzyloxy)-6-nitro-2-phenyl-1H-benzo[d]imidazole] | >30 µM | 300 nM | 2 |  | 
30 | Cc1cccc(-c2nc3cc(C)ccc3o2)c1 [CP-0103978, 5-methyl-2-m-tolylbenzo[d]oxazole] | >10 µM | 1000 nM | 2 |  | 
31 | Nc1nc(-c2ccc(-c3ccccc3)cc2)cs1 [CP-0072036, 4-(biphenyl-4-yl) thiazol-2-amine] | >10 µM | 1500 nM | 1.7 |  | 
32 | O=C(Nc1nc2ccc(Br)cc2s1)c1cccs1 [CP-0064917, N-(6-bromobenzo[d]thiazol-2-yl)thiophene-2-carboxamide] | >10 µM | > 10000 nM | 2 |  | 
